# Reference: US9333202B2, “Non-retinoid antagonists for treatment of age-related macular degeneration and stargardt disease” (THE TRUSTEES OF COLUMBIA UNIVERSITY IN THE CITY OF NEW YORK, priority 2012, dated 2016)
# How the values were obtained:
# [1] = Observation of toxicity signs during 6 week chronic dosing; type: in vivo; conditions: 6 week-long chronic dosing, 30 mg/kg daily oral
# Method: Ten week-old Abca4 null mutant mice (129/SV×C57BL/6J) bred as previously described were used in the study. Abca4−/− (knockout) and Abca4+/+(wild-type) mice were raised under 12 h on-off cyclic lighting with an in-cage illuminance of 30-50 lux. For long-term oral dosing A1120 was formulated into Purina 5035 rodent chow at Research Diets, Inc. (New Brunswick, N.J.) to ensure consistent 30 mg/kg daily oral dosing. Animals were administered the A1120-containing chow for 6 weeks.
# To determine whether A1120 has an effect on retinal production of lipofuscin fluorophores we administered the compound at the daily 30 mg/kg dose to Abca4−/− mice for a period of 6 weeks. Blood samples collected from the treatment and control groups at baseline, Day 21 and Day 42 were used to measure serum RBP4 in order to correlate RBP4 levels with reduction in formation of lipofuscin bisretinoids. […] Levels of lipofuscin fluorophores (A2E, A2-DHP-PE and all-trans-retinal dimer-PE) were determined at the end of the 42-day treatment period using quantitative HPLC.
# Administration of A1120 reduces the production of A2E, A2-DHP-PE, and atRAL di-PE in A1120-treated Abca4−/− mice in comparison to the vehicle-treated Abca4−/− animals by approximately 50%.
# [2] = tested on: lipofuscin bisretinoids (A2E, A2-DHP-PE, atRAL di-PE); test: Bisretinoid (lipofuscin fluorophore) levels in eyecups of Abca4−/− mice by HPLC; type: in vivo, mouse
# Source text: The Abca4−/− mouse model manifests accelerated accumulation of lipofuscin in the RPE and is considered a pre-clinical efficacy model for a drug reducing lipofuscin accumulation. […] There was approximately a 70% reduction in the serum RBP4 level in treated animals (FIG. 11). Additionally, it was discovered that that the levels of A2E/isoA2E and other bisretinoids were reduced by approximately 50% in treated mice (FIG. 12).
# Abca4/Abcr null mutant mice (albino) homozygous for Rpe65-Leu450 are bred genotyped and housed. Posterior eyecups of mice and RPE/choroids harvested from human donor eyes (National Disease Research Interchange, Philadelphia Pa.) are homogenized in phosphate buffered saline (PBS) using a glass tissue grinder and extracted in chloroform/methanol (2:1). Extracts are subsequently filtered through cotton and passed through a reverse phase cartridge (C8 Sep-Pak, Millipore) with 0.1% TFA (Aldrich Chemical Company, Milwaukee, Wis.) in methanol. […] An Alliance system (Waters, Corp, Milford, Mass.) equipped with 2695 Separation Module, 2996 Photodiode Array Detector, a 2475 Multi λ Fluorescence Detector and operating with Empower® software is used for HPLC analysis. […] HPLC quantification is carried out using the Empower® software to determine peak areas. […] Molar quantity per murine eye is determined using calibration curves constructed from known concentrations of purified external standards and by normalizing to the ratio of the HPLC injection volume (10 μL) versus total extract volume. […]
# Following euthanasia, posterior eye cups were pooled and homogenized in PBS using a tissue grinder. […] For quantification of bisretinoids of RPE lipofuscin, a Waters Alliance 2695 HPLC system was employed with an Atlantis dC18 column (Waters, 4.6 mm×150 mm, 3 μm) and the following gradient of acetonitrile in water (containing 0.1% trifluoroacetic acid): 90 to 100% from 0 to 10 min and 100% acetonitrile from 10 to 20 min, with a flow rate of 0.8 mL/min with monitoring at 430 nm. […] Levels of bisretinoid were determined by reference to external standards of HPLC-purified compound. […]
# ERG b-wave = ERG b-wave after photobleaching; conditions: in vivo
# RBP4-TTR interaction = RBP4-TTR interaction (Homo sapiens, UniProt P02753); test: TR-FRET (HTRF) assay for antagonists of retinol-induced RBP4-TTR interaction, agonist and antagonist mode (Example 2); type: biochemical; design: made in house; host or cells: E. coli; conditions: agonist mode, dose titration
# Source text: TR-FRET (Time-Resolved Fluorescence Resonance Energy Transfer) is an assay format that can be used in characterization of compounds affecting protein-protein interactions (31-33). […] In the presence of retinol, RBP4-TTR interaction induces FRET that can be registered as increased ratio of […] fluorescence signals. Binding of a desired RBP4 antagonist displaces retinol and induces hindrance for RBP4-TTR interaction resulting in the decreased FRET signal (FIG. 7).
# The assay was developed using E. coli-expressed MBP-tagged RBP4 and commercially available TTR labeled directly with Eu3+ cryptate. In addition to MBP-RBP4 and Eu3+ (K)-TTR, a detector reagent anti-MBP-d2 was present in the mix. The assay was first optimized in the agonist mode; sensitivity and dynamic range of the assay was […] in respect to RBP4, TTR and detection reagent concentrations.
# [3] = treated mice, oral 30 mg/kg (Example 3)
smiles,measurement,setting,value
"O=C(O)c1ccccc1NC(=O)N1CCC(c2ccccc2C(F)(F)F)CC1 [Compound 1, 2(4-(2-(trifluoromethyl)phenyl)piperidine-1-carboxamido)benzoic acid]",Signs of compound toxicity such as weight loss or reduction in food consumption,[1],did not note any obvious signs of compound toxicity
same,Effect on bisretinoid accumulation (in words),[2]; Abca4−/− mouse model of excessive lipofuscinogenesis,inhibits bisretinoid accumulation
same,Levels of A2-DHP-PE and atRAL di-PE,[2]; [3],also reduced
same,Reduction of levels of A2E/isoA2E and other bisretinoids,[2]; [3],approximately 50%
same,Effect on ERG b-wave after photobleaching,ERG b-wave,does not reduce ERG b-wave after photobleaching
same,Induction of RBP4-TTR interaction,RBP4-TTR interaction,did not induce RBP4-TTR interaction
